Test results from patent US20170320870A1 (Medical Research Council Technology, priority 2009, published 2017).
pIC50: −log10 of the molar value.

Tests used:
Assay type in all cases: biochemical
[1] = target: T1, LRRK2 wild type (recombinant human, catalytic domain amino acids 970-2527, GST-tagged) (Homo sapiens, UniProt Q5S007); assay: LRRK2 wild type protein kinase assay ([γ-33P] ATP, peptide substrate […]), IC50; conditions: LRRK2 (variant not given); read-out: Potency score, LRRK2 IC50
T1 construct: The wild type used was recombinant human, catalytic domain (amino acids 970-2527) GST-tagged, expressed in insect cells; GST; purchased Invitrogen Corporation PV4873; host or cells: insect cells
T1 sequence (Q5S007 970-2527): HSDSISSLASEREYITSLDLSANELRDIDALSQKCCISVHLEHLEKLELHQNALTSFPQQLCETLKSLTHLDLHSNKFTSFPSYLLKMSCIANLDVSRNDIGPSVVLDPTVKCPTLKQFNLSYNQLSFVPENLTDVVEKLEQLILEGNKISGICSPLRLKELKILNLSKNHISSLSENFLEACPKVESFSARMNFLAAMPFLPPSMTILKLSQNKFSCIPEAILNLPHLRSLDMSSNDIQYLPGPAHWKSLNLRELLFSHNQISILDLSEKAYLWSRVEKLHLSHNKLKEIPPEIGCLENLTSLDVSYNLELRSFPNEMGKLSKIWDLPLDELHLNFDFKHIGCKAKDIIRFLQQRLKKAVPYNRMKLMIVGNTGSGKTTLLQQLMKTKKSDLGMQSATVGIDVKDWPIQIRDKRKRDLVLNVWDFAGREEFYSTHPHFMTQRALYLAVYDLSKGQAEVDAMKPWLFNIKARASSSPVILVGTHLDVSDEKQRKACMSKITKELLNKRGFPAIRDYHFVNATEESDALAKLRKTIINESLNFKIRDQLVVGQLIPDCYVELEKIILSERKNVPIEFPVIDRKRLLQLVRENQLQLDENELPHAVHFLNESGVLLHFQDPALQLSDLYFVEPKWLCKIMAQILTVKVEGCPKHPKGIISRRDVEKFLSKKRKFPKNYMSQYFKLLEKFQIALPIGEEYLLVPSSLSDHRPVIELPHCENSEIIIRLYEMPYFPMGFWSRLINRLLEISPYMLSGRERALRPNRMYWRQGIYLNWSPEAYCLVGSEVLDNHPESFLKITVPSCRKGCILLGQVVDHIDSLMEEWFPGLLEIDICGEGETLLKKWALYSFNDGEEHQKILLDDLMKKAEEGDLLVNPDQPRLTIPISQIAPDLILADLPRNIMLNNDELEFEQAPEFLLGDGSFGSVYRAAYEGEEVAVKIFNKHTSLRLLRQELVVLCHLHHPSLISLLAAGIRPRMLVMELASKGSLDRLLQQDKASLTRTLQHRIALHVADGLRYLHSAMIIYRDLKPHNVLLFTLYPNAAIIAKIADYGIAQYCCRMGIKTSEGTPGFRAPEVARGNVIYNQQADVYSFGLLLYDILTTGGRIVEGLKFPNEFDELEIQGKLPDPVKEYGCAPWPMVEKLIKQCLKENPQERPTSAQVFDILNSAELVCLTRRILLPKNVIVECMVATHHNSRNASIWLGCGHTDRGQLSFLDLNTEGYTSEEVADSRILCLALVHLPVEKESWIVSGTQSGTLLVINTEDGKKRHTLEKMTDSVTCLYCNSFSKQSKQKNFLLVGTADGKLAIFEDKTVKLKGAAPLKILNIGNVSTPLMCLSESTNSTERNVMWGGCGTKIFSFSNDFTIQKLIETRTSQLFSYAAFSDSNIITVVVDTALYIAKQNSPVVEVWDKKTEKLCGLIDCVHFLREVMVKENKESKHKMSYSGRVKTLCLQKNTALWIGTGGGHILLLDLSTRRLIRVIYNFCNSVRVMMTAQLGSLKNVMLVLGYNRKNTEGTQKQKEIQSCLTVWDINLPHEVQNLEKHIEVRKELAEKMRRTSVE
Outline: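 Insect-cell-expressed enzyme (~5 nM), no activation, incubated 180 min at ~21 °C in 50 mM Tris-HCl pH 7.5, 0.1 mM EGTA, 1 mM DTT, 10 mM MgCl2 with 100 μM peptide substrate and [γ-33P]ATP. Reaction stopped with orthophosphoric acid, captured on P81 filters and counted; IC50 from 10 concentrations in duplicate.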

[2] = target: each specific kinase (kinase selectivity panel, Table 2) (Homo sapiens, UniProt Q9HBH9); assay: Kinase selectivity: percentage inhibition of each specific kinase at 1 μM inhibitor concentration; conditions: MNK2
Experimental: (§1) Values are expressed as percentage inhibition of the each specific kinase at 1 μM inhibitor concentration.

[3] = target: each specific kinase (kinase selectivity panel, Table 2) (Homo sapiens, UniProt P80192); assay: as above; conditions: MLK1
Chain of each specific kinase (kinase selectivity panel, Table 2) (Homo sapiens, UniProt P80192) (P80192 whole entry): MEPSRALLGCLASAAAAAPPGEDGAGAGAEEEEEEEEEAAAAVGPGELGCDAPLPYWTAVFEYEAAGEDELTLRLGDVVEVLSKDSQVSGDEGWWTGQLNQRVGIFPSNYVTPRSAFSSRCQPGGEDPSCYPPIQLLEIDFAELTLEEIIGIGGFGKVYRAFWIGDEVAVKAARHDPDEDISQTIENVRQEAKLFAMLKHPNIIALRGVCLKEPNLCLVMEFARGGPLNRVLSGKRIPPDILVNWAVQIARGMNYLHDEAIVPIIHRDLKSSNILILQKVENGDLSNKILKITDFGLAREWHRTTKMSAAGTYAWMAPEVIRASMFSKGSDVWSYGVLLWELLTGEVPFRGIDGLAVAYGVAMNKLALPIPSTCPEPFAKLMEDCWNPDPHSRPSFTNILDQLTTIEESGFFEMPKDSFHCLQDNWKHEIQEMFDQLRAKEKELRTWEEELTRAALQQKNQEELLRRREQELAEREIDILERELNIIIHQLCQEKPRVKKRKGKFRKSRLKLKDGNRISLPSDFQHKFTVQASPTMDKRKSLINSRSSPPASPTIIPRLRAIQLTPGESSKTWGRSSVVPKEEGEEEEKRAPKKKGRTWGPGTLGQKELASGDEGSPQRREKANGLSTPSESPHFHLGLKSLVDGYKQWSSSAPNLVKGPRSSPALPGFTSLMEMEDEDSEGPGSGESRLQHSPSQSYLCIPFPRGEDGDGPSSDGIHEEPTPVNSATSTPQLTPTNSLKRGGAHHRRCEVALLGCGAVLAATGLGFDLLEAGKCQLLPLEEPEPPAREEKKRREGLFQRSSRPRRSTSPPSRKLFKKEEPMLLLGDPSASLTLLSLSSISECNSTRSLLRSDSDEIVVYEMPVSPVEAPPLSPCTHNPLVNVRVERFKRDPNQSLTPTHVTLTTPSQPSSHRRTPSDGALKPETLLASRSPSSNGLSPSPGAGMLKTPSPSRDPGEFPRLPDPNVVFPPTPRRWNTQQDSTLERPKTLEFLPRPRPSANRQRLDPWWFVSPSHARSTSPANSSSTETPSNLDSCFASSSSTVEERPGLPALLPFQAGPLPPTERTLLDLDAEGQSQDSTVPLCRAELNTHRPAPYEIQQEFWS
Experimental: as §1

[4] = target: each specific kinase (kinase selectivity panel, Table 2) (Homo sapiens, UniProt Q15139); assay: as above; conditions: PKD1
Experimental: as §1

[5] = target: each specific kinase (kinase selectivity panel, Table 2) (Homo sapiens, UniProt O00141); assay: as above; conditions: SGK1
Experimental: as §1

[6] = target: each specific kinase (kinase selectivity panel, Table 2) (Homo sapiens, UniProt P28482); assay: as above; conditions: ERK2
Experimental: as §1

[7] = target: each specific kinase (kinase selectivity panel, Table 2) (Homo sapiens, UniProt P24941); assay: as above; conditions: CDK2-Cyclin A
Experimental: as §1

[8] = target: each specific kinase (kinase selectivity panel, Table 2) (Homo sapiens, UniProt O15530); assay: as above; conditions: PDK1
Experimental: as §1

[9] = target: each specific kinase (kinase selectivity panel, Table 2) (Homo sapiens, UniProt O60674); assay: as above; conditions: JAK2
Chain of each specific kinase (kinase selectivity panel, Table 2) (Homo sapiens, UniProt O60674) (O60674 whole entry): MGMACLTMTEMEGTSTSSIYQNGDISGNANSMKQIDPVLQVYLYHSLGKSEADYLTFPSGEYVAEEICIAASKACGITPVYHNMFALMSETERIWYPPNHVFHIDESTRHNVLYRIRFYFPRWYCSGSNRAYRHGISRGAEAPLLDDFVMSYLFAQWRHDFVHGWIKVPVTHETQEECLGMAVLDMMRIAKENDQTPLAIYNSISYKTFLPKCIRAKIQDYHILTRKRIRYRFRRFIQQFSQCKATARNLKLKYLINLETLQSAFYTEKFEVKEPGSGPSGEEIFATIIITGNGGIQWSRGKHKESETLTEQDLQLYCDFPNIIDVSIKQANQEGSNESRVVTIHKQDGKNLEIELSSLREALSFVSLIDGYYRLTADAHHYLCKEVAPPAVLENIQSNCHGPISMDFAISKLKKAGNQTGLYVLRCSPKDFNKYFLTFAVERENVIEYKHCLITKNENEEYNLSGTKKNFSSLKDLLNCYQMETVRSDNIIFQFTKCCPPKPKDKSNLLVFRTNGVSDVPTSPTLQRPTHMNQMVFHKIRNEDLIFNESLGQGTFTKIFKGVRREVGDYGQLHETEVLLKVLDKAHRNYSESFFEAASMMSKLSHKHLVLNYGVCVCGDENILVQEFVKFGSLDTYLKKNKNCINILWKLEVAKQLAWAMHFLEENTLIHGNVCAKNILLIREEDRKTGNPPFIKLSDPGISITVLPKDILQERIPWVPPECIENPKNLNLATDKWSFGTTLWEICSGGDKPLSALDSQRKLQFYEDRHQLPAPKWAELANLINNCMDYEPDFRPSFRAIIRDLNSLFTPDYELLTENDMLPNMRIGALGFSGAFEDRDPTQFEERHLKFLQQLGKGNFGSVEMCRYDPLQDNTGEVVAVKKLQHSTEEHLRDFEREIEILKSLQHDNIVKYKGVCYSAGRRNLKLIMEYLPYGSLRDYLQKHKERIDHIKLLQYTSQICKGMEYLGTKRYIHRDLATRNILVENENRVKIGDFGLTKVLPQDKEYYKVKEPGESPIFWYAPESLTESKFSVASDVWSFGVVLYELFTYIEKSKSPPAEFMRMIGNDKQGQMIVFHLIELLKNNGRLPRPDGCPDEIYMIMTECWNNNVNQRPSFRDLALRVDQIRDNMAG
Experimental: as §1

[10] = target: each specific kinase (kinase selectivity panel, Table 2) (Homo sapiens, UniProt P27448); assay: as above; conditions: MARK3
Experimental: as §1

[11] = target: each specific kinase (kinase selectivity panel, Table 2) (Homo sapiens, UniProt Q96GD4); assay: as above; conditions: Aurora B
Chain of each specific kinase (kinase selectivity panel, Table 2) (Homo sapiens, UniProt Q96GD4) (Q96GD4 whole entry): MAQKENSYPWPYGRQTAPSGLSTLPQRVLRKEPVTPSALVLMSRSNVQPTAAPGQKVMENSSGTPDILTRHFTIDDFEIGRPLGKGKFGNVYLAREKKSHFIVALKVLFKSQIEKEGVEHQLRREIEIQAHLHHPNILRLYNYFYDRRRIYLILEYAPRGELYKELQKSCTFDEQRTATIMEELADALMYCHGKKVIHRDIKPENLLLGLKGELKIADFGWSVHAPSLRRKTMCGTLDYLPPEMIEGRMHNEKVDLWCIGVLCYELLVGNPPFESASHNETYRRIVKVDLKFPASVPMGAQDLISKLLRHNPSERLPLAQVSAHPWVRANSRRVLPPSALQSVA
Experimental: as §1

[12] = target: each specific kinase (kinase selectivity panel, Table 2) (Homo sapiens, UniProt Q14680); assay: as above; conditions: MELK
Experimental: as §1

[13] = target: each specific kinase (kinase selectivity panel, Table 2) (Homo sapiens, UniProt P43405); assay: as above; conditions: SYK
Experimental: as §1

[14] = target: each specific kinase (kinase selectivity panel, Table 2) (Homo sapiens, UniProt P53350); assay: as above; conditions: PLK1
Experimental: as §1

[15] = target: each specific kinase (kinase selectivity panel, Table 2) (Homo sapiens, UniProt P14616); assay: as above; conditions: IRR
Experimental: as §1

[16] = target: each specific kinase (kinase selectivity panel, Table 2) (Homo sapiens, UniProt Q14164); assay: as above; conditions: IKKe
Experimental: as §1

[17] = target: each specific kinase (kinase selectivity panel, Table 2) (Homo sapiens, UniProt Q8IW41); assay: as above; conditions: PRAK
Experimental: as §1

[18] = target: each specific kinase (kinase selectivity panel, Table 2) (Homo sapiens, UniProt P11362); assay: as above; conditions: FGF-R1
Chain of each specific kinase (kinase selectivity panel, Table 2) (Homo sapiens, UniProt P11362) (P11362 22-822): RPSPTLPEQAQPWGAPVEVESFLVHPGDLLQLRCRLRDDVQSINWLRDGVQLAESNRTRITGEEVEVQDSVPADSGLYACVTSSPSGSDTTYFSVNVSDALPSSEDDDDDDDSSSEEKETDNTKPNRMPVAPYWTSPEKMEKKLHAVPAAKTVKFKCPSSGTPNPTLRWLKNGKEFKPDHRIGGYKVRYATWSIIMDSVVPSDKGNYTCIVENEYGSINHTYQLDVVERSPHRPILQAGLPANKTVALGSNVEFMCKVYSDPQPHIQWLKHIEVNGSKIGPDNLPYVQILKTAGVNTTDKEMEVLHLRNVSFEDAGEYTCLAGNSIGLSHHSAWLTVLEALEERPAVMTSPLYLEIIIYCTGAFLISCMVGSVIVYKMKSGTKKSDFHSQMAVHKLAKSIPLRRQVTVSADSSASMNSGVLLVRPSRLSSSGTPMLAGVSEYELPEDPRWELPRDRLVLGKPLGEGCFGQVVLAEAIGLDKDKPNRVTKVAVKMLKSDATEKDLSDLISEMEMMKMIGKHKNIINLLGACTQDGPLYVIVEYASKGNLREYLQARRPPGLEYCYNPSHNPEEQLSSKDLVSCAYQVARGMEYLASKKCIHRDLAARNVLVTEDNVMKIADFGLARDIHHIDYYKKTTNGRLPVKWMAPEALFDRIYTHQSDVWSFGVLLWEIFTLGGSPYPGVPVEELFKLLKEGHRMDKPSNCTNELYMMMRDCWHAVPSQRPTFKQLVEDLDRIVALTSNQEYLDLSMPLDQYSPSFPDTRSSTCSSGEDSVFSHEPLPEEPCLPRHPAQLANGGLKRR
Experimental: as §1

[19] = target: each specific kinase (kinase selectivity panel, Table 2) (Homo sapiens, UniProt P31749); assay: as above; conditions: PKBa
Experimental: as §1

[20] = target: each specific kinase (kinase selectivity panel, Table 2) (Homo sapiens, UniProt Q8N4C8); assay: as above; conditions: MINK1
Experimental: as §1

[21] = target: each specific kinase (kinase selectivity panel, Table 2) (Homo sapiens, UniProt P12931); assay: as above; conditions: Src
Experimental: as §1

[22] = target: each specific kinase (kinase selectivity panel, Table 2) (Homo sapiens, UniProt P06239); assay: as above; conditions: Lck
Experimental: as §1

[23] = target: each specific kinase (kinase selectivity panel, Table 2) (Homo sapiens, UniProt P41240); assay: as above; conditions: CSK
Experimental: as §1

[24] = target: each specific kinase (kinase selectivity panel, Table 2) (Homo sapiens, UniProt P45984); assay: as above; conditions: JNK2
Experimental: as §1

[25] = target: each specific kinase (kinase selectivity panel, Table 2) (Homo sapiens, UniProt O96013); assay: as above; conditions: PAK4
Experimental: as §1

CC[C@H](C)Oc1nccc2[nH]nc(C)c12 [Example 121, 4-((S)-sec-Butoxy)-3-methyl-1H-pyrazolo[4,3-c]pyridine]
pIC50 [1]: > 7.00
percentage inhibition of MNK2 [2]: 7 percentage
percentage inhibition of MLK1 [3]: 19 percentage
percentage inhibition of PKD1 [4]: 29 percentage
percentage inhibition of SGK1 [5]: 23 percentage
percentage inhibition of ERK2 [6]: 0 percentage
percentage inhibition of CDK2-Cyclin A [7]: 61 percentage
percentage inhibition of PDK1 [8]: 13 percentage
percentage inhibition of JAK2 [9]: 47 percentage
percentage inhibition of MARK3 [10]: 12 percentage
percentage inhibition of Aurora B [11]: 0 percentage
percentage inhibition of MELK [12]: 61 percentage
percentage inhibition of SYK [13]: 0 percentage
percentage inhibition of PLK1 [14]: 19 percentage
percentage inhibition of IRR [15]: 22 percentage
percentage inhibition of IKKe [16]: 19 percentage
percentage inhibition of PRAK [17]: 0 percentage
percentage inhibition of FGF-R1 [18]: 36 percentage
percentage inhibition of PKBa [19]: 19 percentage
percentage inhibition of MINK1 [20]: 17 percentage
percentage inhibition of Src [21]: 0 percentage
percentage inhibition of Lck [22]: 0 percentage
percentage inhibition of CSK [23]: 6 percentage
percentage inhibition of JNK2 [24]: 0 percentage
percentage inhibition of PAK4 [25]: 26 percentage

O=C(CCc1n[nH]c2ccnc(NC3CCCCC3)c12)N1CCC[C@H](c2ccccc2)C1 [Example 172, 3-(4-Cyclohexylamino-1H-pyrazolo[4,3-c]pyridin-3-yl)-1-((R)-3-phenyl-piperidin-1-yl)-propan-1-one]
pIC50 [1]: > 7.00
percentage inhibition of MNK2 [2]: 0 percentage
percentage inhibition of MLK1 [3]: 13 percentage
percentage inhibition of PKD1 [4]: 1 percentage
percentage inhibition of SGK1 [5]: 1 percentage
percentage inhibition of ERK2 [6]: 9 percentage
percentage inhibition of CDK2-Cyclin A [7]: 0 percentage
percentage inhibition of PDK1 [8]: 0 percentage
percentage inhibition of JAK2 [9]: 12 percentage
percentage inhibition of MARK3 [10]: 18 percentage
percentage inhibition of Aurora B [11]: 15 percentage
percentage inhibition of MELK [12]: 5 percentage
percentage inhibition of SYK [13]: 4 percentage
percentage inhibition of PLK1 [14]: 3 percentage
percentage inhibition of IRR [15]: 15 percentage
percentage inhibition of IKKe [16]: 17 percentage
percentage inhibition of PRAK [17]: 0 percentage
percentage inhibition of FGF-R1 [18]: 0 percentage
percentage inhibition of PKBa [19]: 0 percentage
percentage inhibition of MINK1 [20]: 18 percentage
percentage inhibition of Src [21]: 6 percentage
percentage inhibition of Lck [22]: 25 percentage
percentage inhibition of CSK [23]: 11 percentage
percentage inhibition of JNK2 [24]: 22 percentage
percentage inhibition of PAK4 [25]: 24 percentage
